Patent publication US20170114049A1, “2,5-DISUBSTITUTED CYCLOPENTANE CARBOXYLIC ACIDS FOR THE TREATMENT OF RESPIRATORY TRACT DISEASES” (BAYER PHARMA AKTIENGESELLSCHAFT, priority 2014, published 2017)

Key:
Format in all cases: biochemical
mouse MMP-12 = molecular target: T1, mouse MMP-12 (Mus musculus, UniProt P34960); assay: In vitro mouse MMP-12 inhibition test (standard or high-sensitivity)
T1 construct: purchased R&D Systems 3467-MP
Text: (§1) The MMP-mediated amidolytic cleavage of a suitable peptide substrate leads to an increase in fluorescent light here too. The signal intensity of the fluorescent light is directly proportional to the enzyme activity. The active concentration of a test compound at which half the enzyme is inhibited (50% signal intensity of the fluorescent light) is reported as the […].
Recombinant mouse MMP-12 (from R&D Systems, 3467-MP) is autocatalytically activated in accordance with the manufacturer's instructions. 1 μl of the test compound to be analysed (as a solution in DMSO, suitable concentrations, for example, 1 nM to 30 μM) is pipetted into 24 μl of activated enzyme (final concentration, for example, 1 nM) in reaction buffer (50 mM Tris/HCl pH 7.5, 10 mM CaCl2, 150 mM NaCl, 0.05% Brij®-35) in a white 384-hole microtiter plate (MTP). The enzymatic reaction is started by adding the intramolecularly quenched Mca-Lys-Pro-Leu-Gly-Leu-Dpa(Dnp)-Ala-Arg-NH2 substrate (final concentration, for example, 5 μM; R&D Systems, ES-010), so as to result in a total test volume of 50 μl. The course of the MMP-12 reaction is measured by measuring the fluorescence intensity (excitation 320 nm, emission 410 nm) over a suitable period of time (for example over 120 min at a temperature of 32° C.).
In this case, an enzyme concentration ten times lower is used (final concentration, for example, 0.1 nM) in order to achieve an elevated test sensitivity. The incubation period chosen for the test is correspondingly longer (for example 16 hours).

MMP-7 = molecular target: T2, MMP-7 (Homo sapiens, UniProt P09237); assay: In vitro MMP-7 inhibition test
T2 construct: purchased R&D Systems 907-MP
T2 sequence (P09237 95-267): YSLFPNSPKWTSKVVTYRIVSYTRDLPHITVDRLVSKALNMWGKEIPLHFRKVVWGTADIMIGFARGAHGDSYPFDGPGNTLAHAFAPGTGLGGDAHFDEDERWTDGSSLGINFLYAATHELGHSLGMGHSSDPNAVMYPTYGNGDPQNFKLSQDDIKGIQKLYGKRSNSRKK
Text: as §1
(§2) Recombinant MMP-7 (from R&D Systems, 907-MP) is chemically activated in accordance with the manufacturer's instructions using APMA. 1 μl of the test compound to be analysed (as a solution in DMSO, suitable concentrations, for example, 1 nM to 30 μM) is pipetted into 24 μl of activated enzyme (final concentration, for example, 0.5 nM) in reaction buffer (50 mM Tris/HCl pH 7.5, 10 mM CaCl2, 150 mM NaCl, 0.05% Brij®-35) in a white 384-hole microtiter plate (MTP). The enzymatic reaction is started by adding the intramolecularly quenched Mca-Pro-Leu-Gly-Leu-Dpa(Dnp)-Ala-Arg-NH2 substrate (final concentration, for example, 10 μM; R&D Systems, ES-001), so as to result in a total test volume of 50 μl. The course of the MMP-7 reaction is measured by measuring the fluorescence intensity (excitation 320 nm, emission 410 nm) over a suitable period of time (for example over 120 min at a temperature of 32° C.).

MMP-8 = molecular target: T3, MMP-8 (Homo sapiens, UniProt P22894); assay: In vitro MMP-8 inhibition test
T3 construct: purchased R&D Systems 908-MP
T3 sequence (P22894 101-467): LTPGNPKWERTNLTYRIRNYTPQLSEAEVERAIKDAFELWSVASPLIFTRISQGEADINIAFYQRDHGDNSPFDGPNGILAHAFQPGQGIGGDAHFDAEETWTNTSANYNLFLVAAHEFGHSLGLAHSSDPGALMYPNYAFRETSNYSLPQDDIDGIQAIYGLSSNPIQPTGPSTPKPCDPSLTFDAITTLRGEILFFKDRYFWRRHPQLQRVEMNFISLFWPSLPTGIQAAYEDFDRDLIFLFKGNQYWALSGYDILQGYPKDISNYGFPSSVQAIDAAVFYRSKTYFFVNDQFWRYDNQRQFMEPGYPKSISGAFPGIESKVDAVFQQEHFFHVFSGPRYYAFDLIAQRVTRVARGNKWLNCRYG
Text: as §1
as §2, with “MMP-8” for “MMP-7”, “908-MP)” for “907-MP)”

[1] = molecular target: T4, human macrophage elastase (HME/hMMP-12) (Homo sapiens, UniProt P39900); assay: In vitro HME inhibition test in the presence of serum albumin (BSA) in the reaction buffer; details: presence of serum albumin (BSA) 2% (w/w)
T4 construct: 0.5 nM HME; purchased R&D Systems 917-MP
T4 sequence (P39900 106-470): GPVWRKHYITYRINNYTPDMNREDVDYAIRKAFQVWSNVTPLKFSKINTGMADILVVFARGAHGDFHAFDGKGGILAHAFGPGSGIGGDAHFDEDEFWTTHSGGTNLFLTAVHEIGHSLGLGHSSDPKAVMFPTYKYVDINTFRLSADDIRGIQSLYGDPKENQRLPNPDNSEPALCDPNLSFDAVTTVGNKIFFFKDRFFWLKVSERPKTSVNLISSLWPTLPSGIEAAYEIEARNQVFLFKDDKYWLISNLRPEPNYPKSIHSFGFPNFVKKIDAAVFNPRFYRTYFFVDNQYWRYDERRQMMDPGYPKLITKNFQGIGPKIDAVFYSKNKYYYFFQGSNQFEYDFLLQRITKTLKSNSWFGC
Text: This test corresponds to the standard HME inhibition test described above, except using a modified reaction buffer. This reaction buffer additionally contains bovine serum albumin (BSA, fatty acid-free, A6003, from Sigma-Aldrich) of final concentration 2% (w/w), which corresponds to about half the physiological serum albumin content.

mouse MMP-2 = molecular target: T5, mouse MMP-2 (Mus musculus, UniProt P33434); assay: In vitro mouse MMP-2 inhibition test
T5 construct: purchased R&D Systems 924-MP
T5 sequence (P33434 110-662): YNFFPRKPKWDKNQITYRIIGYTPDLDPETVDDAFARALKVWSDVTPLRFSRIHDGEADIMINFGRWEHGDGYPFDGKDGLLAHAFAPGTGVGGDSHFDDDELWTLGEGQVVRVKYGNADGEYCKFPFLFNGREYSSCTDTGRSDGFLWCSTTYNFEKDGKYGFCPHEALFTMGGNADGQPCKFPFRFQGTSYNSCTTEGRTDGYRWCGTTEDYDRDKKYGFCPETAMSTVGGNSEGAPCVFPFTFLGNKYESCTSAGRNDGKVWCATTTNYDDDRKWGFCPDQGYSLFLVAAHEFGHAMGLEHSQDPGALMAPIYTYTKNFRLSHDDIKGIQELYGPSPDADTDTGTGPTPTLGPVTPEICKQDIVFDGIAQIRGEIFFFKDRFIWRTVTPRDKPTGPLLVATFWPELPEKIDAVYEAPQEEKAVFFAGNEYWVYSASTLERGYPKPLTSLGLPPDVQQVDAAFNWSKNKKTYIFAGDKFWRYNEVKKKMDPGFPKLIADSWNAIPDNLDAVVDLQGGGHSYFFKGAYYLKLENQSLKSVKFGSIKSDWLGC
Text: as §1
as §2, with “Recombinant mouse MMP-2” for “Recombinant MMP-7”, “Systems, 924-MP)” for “Systems, 907-MP)”, “example, 0.1” for “example, 0.5”, “the MMP-2” for “the MMP-7”

mouse MMP-3 = molecular target: T6, mouse MMP-3 (Mus musculus, UniProt P28862); assay: In vitro mouse MMP-3 inhibition test
T6 construct: purchased R&D Systems 548-MP
T6 sequence (P28862 100-477): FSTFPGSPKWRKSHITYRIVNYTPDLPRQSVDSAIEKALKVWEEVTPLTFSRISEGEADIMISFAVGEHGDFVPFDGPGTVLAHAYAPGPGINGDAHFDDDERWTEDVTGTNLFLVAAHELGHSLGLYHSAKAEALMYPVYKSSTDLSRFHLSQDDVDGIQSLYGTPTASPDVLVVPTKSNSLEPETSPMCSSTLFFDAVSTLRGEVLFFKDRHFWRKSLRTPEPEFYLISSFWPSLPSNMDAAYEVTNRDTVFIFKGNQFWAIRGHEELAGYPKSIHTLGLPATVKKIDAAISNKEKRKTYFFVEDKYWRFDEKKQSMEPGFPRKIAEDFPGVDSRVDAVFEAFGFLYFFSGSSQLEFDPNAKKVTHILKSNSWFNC

T1 sequence (P34960 110-473): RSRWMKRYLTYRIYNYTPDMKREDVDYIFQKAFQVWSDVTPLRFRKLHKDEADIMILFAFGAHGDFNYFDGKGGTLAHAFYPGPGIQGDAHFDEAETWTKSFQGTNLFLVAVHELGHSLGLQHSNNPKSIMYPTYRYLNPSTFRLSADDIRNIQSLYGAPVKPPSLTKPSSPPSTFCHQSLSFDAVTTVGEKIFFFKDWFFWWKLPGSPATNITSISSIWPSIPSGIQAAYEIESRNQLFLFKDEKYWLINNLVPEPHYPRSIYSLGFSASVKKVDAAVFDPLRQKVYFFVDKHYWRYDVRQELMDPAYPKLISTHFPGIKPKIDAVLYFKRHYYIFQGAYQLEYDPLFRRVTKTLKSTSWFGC

Compound	IC50 (mouse MMP-12) [nM]	IC50 (MMP-7) [nM]	IC50 (MMP-8) [nM]	IC50 [1] [nM]	IC50 (mouse MMP-2) [nM]	IC50 (mouse MMP-3) [nM]
O=C(O)[C@H]1[C@H](Cn2nnc3ccccc3c2=O)CC[C@@H]1C(=O)c1ccc(OCC2CCOCC2)cc1 (stereo in doubt) [Example 1, (+/−)-(1RS,2SR,5RS)-2-[(4-Oxo-1,2,3-benzotriazin-3(4H)-yl)methyl]-5-[4-(tetrahydro-2H-pyran-4-ylmethoxy)benzoyl]cyclopentanecarboxylic acid]	3.3	1200	11	6.45	170	570
O=C(O)[C@@H]1[C@@H](Cn2nnc3ccc(C(F)(F)F)cc3c2=O)CC[C@H]1C(=O)c1ccc(SCC2CCOCC2)cc1 (single isomer, unassigned) [Example 15, (+)-(1RS,2SR,5RS)-2-{[4-Oxo-6-(trifluoromethyl)-1,2,3-benzotriazin-3(4H)-yl]methyl}-5-{4-[(tetrahydro-2H-pyran-4-ylmethyl)sulphanyl]benzoyl}cyclopentanecarboxylic acid]		80	0.9	16		
O=C(O)[C@H]1[C@H](Cn2nnc3ccc(C(F)(F)F)cc3c2=O)CC[C@@H]1C(=O)c1ccc(OCCC2CCOCC2)cc1 (stereo in doubt) [Example 10, (+/−)-(1RS ,2S R,5RS)-2-{[4-Oxo-6-(trifluoromethyl)-1,2,3-benzotriazin-3(4H)-yl]methyl}-5-{4-[2-(tetrahydro-2H-pyran-4-yl)ethoxy]benzoyl}cyclopentanecarboxylic acid]	2.8	96	3.9		300	120
O=C(O)[C@@H]1[C@@H](Cn2nnc3ccccc3c2=O)CC[C@H]1C(=O)c1ccc(OCC2CCOCC2)cc1 (stereo in doubt) [Example 2, (+)-(1RS,2SR,5RS)-2-[(4-Oxo-1,2,3-benzotriazin-3(4H)-yl)methyl]-5-[4-(tetrahydro-2H-pyran-4-ylmethoxy)benzoyl]cyclopentanecarboxylic acid]	0.85	640	4.7	6.71	58	710
O=C(O)[C@@H]1[C@@H](Cn2nnc3ccccc3c2=O)CC[C@H]1C(=O)c1ccc(OCCC2CCOCC2)cc1 (single isomer, unassigned) [Example 5, (+)-(1RS,2SR,5RS)-2-[(4-Oxo-1,2,3-benzotriazin-3(4H)-yl)methyl]-5-{4-[2-(tetrahydro-2H-pyran-4-yl)ethoxy]benzoyl}cyclopentanecarboxylic acid]	0.67	600	15	4.06	45	270
O=C(O)[C@H]1[C@H](Cn2nnc3ccccc3c2=O)CC[C@@H]1C(=O)c1ccc(OCCC2CCOCC2)cc1 (stereo in doubt) [Example 4, (+/−)-(1RS,2SR,5RS)-2-[(4-Oxo-1,2,3-benzotriazin-3(4H)-yl)methyl]-5-{4-[2-(tetrahydro-2H-pyran-4-yl)ethoxy]benzoyl}cyclopentanecarboxylic acid]	7.7	3200	98	37.3	490	4000
Cc1ccc2nnn(C[C@@H]3CC[C@H](C(=O)c4ccc(OCCC5CCOCC5)cc4)[C@H]3C(=O)O)c(=O)c2c1 (racemic) [Example 19, (+/−)-(1RS,2SR,5RS)-2-[(6-Methyl-4-oxo-1,2,3-benzotriazin-3(4H)-yl)methyl]-5-{4-[2-(letrahydro-2H-pyran-4-yl)ethoxy]benzoyl}cyclopentanecarboxylic acid]	7.6	1100	28	32	840	3100
O=C(O)[C@@H]1[C@@H](Cn2nnc3ccc(C(F)(F)F)cc3c2=O)CC[C@H]1C(=O)c1ccc(OCCC2CCOCC2)cc1 (single isomer, unassigned) [Example 11, (+)-(1RS,2SR,5RS)-2-{[4-Oxo-6-(trifluoromethyl)-1,2,3-benzotriazin-3(4H)-yl]methyl}-5-{4-[2-(tetrahydro-2H-pyran-4-yl)ethoxy]benzoyl}cyclopentanecarboxylic acid]	9.4	190	5.6	39.2	640	620
O=C(O)[C@H]1[C@H](Cn2nnc3ccc(C(F)(F)F)cc3c2=O)CC[C@@H]1C(=O)c1ccc(OCC2CCOCC2)cc1 (racemic) [Example 7, (+/−)-(1RS,2SR,5RS)-2-{[4-Oxo-6-(trifluoromethyl)-1,2,3-benzotriazin-3(4H)-yl]methyl}-5-[4-(tetrahydro-2H-pyran-4-ylmethoxy)benzoyl]cyclopentanecarboxylic acid]		130	1			
(+)-(1RS,2SR,5RS)-2-{[4-Oxo-6-(trifluoromethyl)-1,2,3-benzotriazin-3(4H)-yl]methyl}-5-[4-(tetra-hydro-2H-pyran-4-ylmethoxy)benzoyl]cyclopentanecarboxylic acid [Example 8]		45	0.6	2.45		
Cc1ccc2nnn(C[C@H]3CC[C@@H](C(=O)c4ccc(OCCC5CCOCC5)cc4)[C@@H]3C(=O)O)c(=O)c2c1 (single isomer, unassigned) [Example 20, (+)-(1RS,2SR,5RS)-2-[(6-Methyl-4-oxo-1,2,3-benzotriazin-3(4H)-yl)methyl]-5-{4-[2-(tetrahydro-2H-pyran-4-yl)ethoxy]benzoyl}cyclopentanecarboxylic acid]	1.7	290	10	12.2	340	670
